# Experimental data reported in patent publication US12357624B2, “Low dose pridopidine for Parkinson's Disease and other diseases associated with parkinsonism” (PRILENIA NEUROTHERAPEUTICS LTD., priority 2019, dated 2025).
# Target: S1R (Mus musculus, UniProt O55242)
# Conditions: both doses of 0.3 and 1 mg/kg; judged plausible from Ki and free brain concentration
# S1R, sequence (O55242 whole entry): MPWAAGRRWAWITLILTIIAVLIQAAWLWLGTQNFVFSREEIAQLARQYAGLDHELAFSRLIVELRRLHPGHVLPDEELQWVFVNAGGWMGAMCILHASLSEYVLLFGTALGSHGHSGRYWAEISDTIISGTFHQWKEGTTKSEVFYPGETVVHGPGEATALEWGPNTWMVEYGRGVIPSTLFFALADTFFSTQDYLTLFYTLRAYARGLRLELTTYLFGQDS
structure (smiles),measurement,value
"CCCN1CCC(c2cccc(S(C)(=O)=O)c2)CC1 [pridopidine, 4-[3-(methylsulfonyl)phenyl]-1-propyl-piperidine]",occupancy of the S1R at Cmax,100%
